“Also recorded” adds a separate entry of the source.
How the values were obtained:
[1] = test system: lipid rafts on Raji cells; assay: fluorescence microscopy colocalisation with lipid raft markers; format: cell-based; settings: 60 min at 37C, APT2104 with endogenous CD59, APT2105 and APT070 with FITC-CTB
Raji cells = assay: confocal microscopy of intracellular localization; format: cell-based; settings: confocal microscope, added singly or with raft markers
Description: For confocal microscopy, cells were treated with a variety of compounds and antibodies as described above. The cells were fixed and mounted as described and visualised using an Axiophot microscope (Carl Zeiss) coupled to a Colour Coolview CCD colour camera. Filter settings for the simultaneous detection of red and green fluorescence were used. The digital images were processed using Photoshop software (Adobe Systems). Cell images were obtained that visualised either the surface of the cell or cell sections.
This example follows the same procedure as described in example 13 with the following modifications. In certain experiments, lipid raft targeted compounds were added to the cells either singly, or in combination with other compounds. The compounds were then visualized with fluorescent antibodies or in the case of APT2104 and APT2105 by their intrinsic fluorescence, in each case using a confocal microscope as described in methods.

[2] = test system: classical pathway-mediated haemolysis of sheep erythrocytes; settings: described in WO 98/02454; cited from earlier work
[3] = test system: complement-mediated lysis by human serum; assay: haemolytic assay (1:400 dilution of human serum); format: cell-based; settings: read-out: concentration required to bring about 50% inhibition of lysis (IH50)
Source text: APT530 is a protein that comprises the short consensus repeats 1,2,3 and 4 of human CD55 (decay accelerating factor, DAF), with a carboxyl terminal cysteine residue expressed in a recombinant form in E. coli cells. cDNA that encoded human DAF mRNA was generated from total brain RNA as described in Example 9. A plasmid to encode APT530 was generated by PCR using the pUC-DAF plasmid as template. Primers were designed to amplify the region of the DAF gene encoding amino acids 35-285 (SCR1-4). The 5′ primer incorporated an NdeI restriction enzyme site, and a codon specifying glutamine, thereby introducing an amino terminal methionine-glutamine amino acid pair. The 3′ primer added a carboxyl terminal cysteine residue and incorporated an EcoRI restriction enzyme site. The PCR product was cloned into the pUC57/T T-vector as described, sequenced, the insert excised with NdeI and EcoRI, and ligated into pET266 (Novagen, Madison, USA). The product of this ligation is the plasmid pET99-01, which expresses DAF (SCR1-4). pET99-01 DNA was introduced into E. coli HAMS113 (see methods) and expression of the recombinant protein induced as described in Example 1. The expression of APT530 was analysed by SDS-PAGE (described in methods). […] Refolded […] was analysed by SDSPAGE, Western blot and the effectiveness of the protein in a haemolytic assay (described in methods). […]

[4] = test system: complement-mediated lysis of guinea pig erythrocytes by human serum; assay: C5b6-initiated reactive lysis of erythrocytes; format: cell-based; settings: reactive lysis assay
Description: C56 euglobulin was an essential reagent that was used for the C5b6-initiated reactive lysis of erythrocytes. C56 euglobulin was generated in and purified from some acute-phase sera from post-trauma individuals (such as sports injuries, surgery or childbirth). Blood was drawn from donors in the acute phase of inflammation and allowed to clot at room temperature. To each 10 mls of serum, 0.5 mls of yeast suspension was added and the mixture incubated overnight on a rotator at room temperature. The serum was centrifuged to remove the yeast and dialysed against 0.02M Na/K phosphate, pH 5.4. The precipitate (containing the C56 euglobulin) was collected by centrifugation and redisolved in 0.01M Na/K phosphate/0.05M NaCl, pH7.0 containing 25% v/v glycerol.
Guinea pig erythrocytes (TCS Microbiological, UK) were washed twice in PBS and resuspended to 5% by volume in PBS/0.05% CHAPS. 50 microL of these cells were placed in the wells of a round-bottomed microtitre plate. Samples to be tested were diluted in PBS/0.05% CHAPS and 50 microL of these test solutions then added to the wells containing the guinea pig erythrocytes. The plate was then incubated at 37 degrees Celsius for 20 minutes to allow binding of the samples to the erythrocytes. […] 100 microL of the supernatant was transferred to a clear flat bottomed microtitre plate and the absorbance at 410 nm measured spectroscopically. […]

Row | Molecule | co-localisation with lipid raft markers (FITC-CTB / endogenous CD59) [1] | intracellular localization (intracellular fluorescence) (Raji cells) | IC50 [3] [nM] | also measured
1 | N-Myristoyl-Gly-Ser-Ser-Lys-Ser-Pro-Ser-Lys-Lys-Lys-Lys-Lys-Lys-Pro-Gly-Glu-Cys(S-succinimido Alexafluor™488 C5)-NH2 [APT2104] | co-localise; also recorded: discrete punctate pattern | intracellular fluorescence was seen | – | –
2 | N-Myristoyl Gly-Ser-Ser-Lys-Ser-Pro-Ser-Lys-Lys-Lys-Lys-Lys-Lys-Pro-Gly-Glu-Cys(S-succinimido Alexafluor™546 C5)-NH2 [APT2105] | co-localise; also recorded: discrete punctate pattern | intracellular fluorescence was seen | – | –
3 | APT070: residues 1-196 of CR1 ([SCR1-3]-Cys) derivatised with myristoyl cationic peptide MSWP-1; WO 98/02454 example 8 [reference compound] | co-localise; also recorded: discrete punctate pattern | intracellular fluorescence was seen | – | anti-complement activity, potency relative to [SCR1-3]-Cys [2]: 100-1000 fold
4 | APT2334: APT530 linked to a single molecule of APT542 (MSWP-1) (SEQ ID No: 11) (conjugate, APT530 linked to APT542 (MSWP-1)) MQDCGLPPDVPNAQPALEGRTSFPEDTVITYKCEESFVKIPGEKDSVICLKGSQWSDIEEFCNRSCEVPTRLNSASLKQPYITQNYFPVGTVVEYECRPGYRREPSLSPKLTCLQNLKWSTAVEFCKKKSCPNPGEIRNGQIDVPGGILFGATISFSCNTGYKLFGSTSSFCLISGSSVQWSDPLPECREIYCPAPPQIDNGIIQGERDHYGYRQSVTYACNKGFTMIGEHSIYCTVNNDEGEWSGPPPECRGCCDGPKKKKKKSPSKSSG | – | – | 0.2 | –
5 | APT530: short consensus repeats 1,2,3 and 4 of human CD55 (DAF) with a carboxyl terminal cysteine, expressed in E. coli (SEQ ID No: 10) (protein) MQDCGLPPDVPNAQPALEGRTSFPEDTVITYKCEESFVKIPGEKDSVICLKGSQWSDIEEFCNRSCEVPTRLNSASLKQPYITQNYFPVGTVVEYECRPGYRREPSLSPKLTCLQNLKWSTAVEFCKKKSCPNPGEIRNGQIDVPGGILFGATISFSCNTGYKLFGSTSSFCLISGSSVQWSDPLPECREIYCPAPPQIDNGIIQGERDHYGYRQSVTYACNKGFTMIGEHSIYCTVNNDEGEWSGPPPECRGC | – | – | ~40 | –
6 | APT632: soluble CD59 from human urine (u-hCD59, Seq. ID No. 1) thiolated with 2-iminothiolane and linked to APT542 (conjugate, listed as Homo sapiens, thiolated with 2-iminothiolane, linked to APT542) LQCYNCPNPTADCKTAVNCSSDFDACLITKAGLQVYNKCWKFEHCNFNDVTTRLRENELTYYCCKKDLCNFNEQLEN | – | – | – | concentration at which guinea pig erythrocytes are protected from complement-mediated lysis by human serum [4]: greater than 0.5 nM

Source: US20040043432A1, “Compounds targeted to cellular locations” (priority 2000, published 2004)
